Assay results from patent publication US8242088B2, “Carrier vectors through an epithelium with tight junctions” (Centre National de la Recherche Scientifique, priority 2000, dated 2012).
No end group written: not given here.

System: MDCK (Madin-Darby Canine Kidney) cells
Experiment: Passage across an epithelium with tight junctions (TRANSWELL system)
Assay type: in vitro ADME
Details: for passage into the apical compartment: Example 4: basolateral compartment, 10 μM, 30 minutes at 370° C.
Procedure: The passage of the Penet and NES-Penet peptides across an epithelium with tight junctions was evaluated using the device (TRANSWELL system, CORNING-COSTAR) represented in FIG. 3.
This device comprises two compartments (1, 2) separated by a microporous polyester membrane (3) on which an epithelium (4) consisting of MDCK (Madin-Darby Canine Kidney) cells has been established. The cells are seeded and grow to confluence.
The compartment (1) in contact with the microporous membrane and the basolateral pole of the cells is referred to as the basolateral compartment. The compartment (2), in contact with the apical pole of the cells, is referred to as the apical compartment.
Each of the compartments is filled with medium consisting of the following: Minimum Essential Medium with Earle Salt (MEM), 2 mM glutamine, 2 mM Hepes, pH 7, 5 U/ml penicillin, 5 μg/ml streptomycin, supplemented with a mixture of protease inhibitors.
For each experiment, the integrity of the tight junctions is controlled by measuring the resistance between the two compartments (R>2000Ω/cm^2).
Moreover, the tightness of the epithelium was also verified by adding […] inulin (6.5×10^5 cpm/compartment), either to the apical compartment or to the basolateral compartment, and measuring the radioactivity in the other compartment 180 minutes later. […]
The peptides are precipitated by adding 10% trichloro-acetic acid (TCA), and taken up in boiling Laemmli medium. […] The presence of the Penet-1 or NES-Penet peptides in the starting compartment, in the end compartment, or inside the cells, is detected by revelation with streptavidin-peroxidase as indicated in Example 1 above. […]
At the end of the incubation, the contents of the basolateral compartment and of the apical compartment, and that of the cells, were analyzed as described above in order to detect the presence of the NES-Penet peptide.
Furthermore, the passage of the peptides across an epithelium with tight junctions was evaluated using the device described in Example 2 above. […]

Molecule | degradation of the peptide during passage | passage into the apical compartment
CC[C@H](C)[C@H](NC(=O)[C@H](CCCCN)NC(=O)[C@@H](NC(=O)[C@H](CCC(N)=O)NC(=O)[C@H](CCCNC(=N)N)NC(=O)[C@H](CCC(=O)O)NC(=O)[C@H](CC(N)=O)NC(=O)[C@H](CC(C)C)NC(=O)CNC(=O)[C@H](CC(C)C)NC(=O)[C@H](CCC(=O)O)NC(=O)[C@H](CCC(N)=O)NC(=O)[C@H](C)NC(=O)[C@H](CC(C)C)NC(=O)[C@H](CO)NC(=O)[C@H](CCC(N)=O)NC(=O)CCCCNC(=O)CCCC[C@@H]1SC[C@@H]2NC(=O)N[C@@H]21)[C@@H](C)CC)C(=O)N[C@@H](Cc1c[nH]c2ccccc12)C(=O)N[C@@H](Cc1ccccc1)C(=O)N[C@@H](CCC(N)=O)C(=O)N[C@@H](CC(N)=O)C(=O)N[C@@H](CCCNC(=N)N)C(=O)N[C@@H](CCCNC(=N)N)C(=O)N[C@@H](CCSC)C(=O)N[C@@H](CCCCN)C(=O)N[C@@H](Cc1c[nH]c2ccccc12)C(=O)N[C@@H](CCCCN)C(=O)N[C@@H](CCCCN)C(=O)O [NES-Penet] | not accompanied by any degradation | –
RQPKIWFPNRRKPWKK [Pen3P, RQPKIWFPNRRKPWKK, reference compound] | – | very slight passage
CC[C@H](C)[C@H](NC(=O)[C@H](CCCCN)NC(=O)[C@@H]1CCCN1C(=O)[C@H](CCC(N)=O)NC(=O)[C@H](CCCNC(=N)N)NC(=O)[C@H](CCC(=O)O)NC(=O)[C@H](CC(N)=O)NC(=O)[C@H](CC(C)C)NC(=O)CNC(=O)[C@H](CC(C)C)NC(=O)[C@H](CCC(=O)O)NC(=O)[C@H](CCC(N)=O)NC(=O)[C@H](C)NC(=O)[C@H](CC(C)C)NC(=O)[C@H](CO)NC(=O)[C@H](CCC(N)=O)NC(=O)CCCCNC(=O)CCCC[C@@H]1SC[C@@H]2NC(=O)N[C@@H]21)C(=O)N[C@@H](Cc1c[nH]c2ccccc12)C(=O)N[C@@H](Cc1ccccc1)C(=O)N1CCC[C@H]1C(=O)N[C@@H](CC(N)=O)C(=O)N[C@@H](CCCNC(=N)N)C(=O)N[C@@H](CCCNC(=N)N)C(=O)N[C@@H](CCCCN)C(=O)N1CCC[C@H]1C(=O)N[C@@H](Cc1c[nH]c2ccccc12)C(=O)N[C@@H](CCCCN)C(=O)N[C@@H](CCCCN)C(=O)O [NES-Pen3P] | – | much greater
